Reference: PMC12064818, “A general assay platform to study protein pharmacology using ligand-dependent structural dynamics” (Nature Communications, 2025)
Counter-ions that a name gives are not always drawn. Like-named read-outs stand apart in the source and are kept apart here.

Tests used:
[1] = target: T1, ABL1-N-HiBiT kinase domain (Homo sapiens, UniProt P00519); experiment: SDR assay, ABL1-N-HiBiT; conditions: for ABL1 SDR pSDR50: heatmap data, 128 kinase inhibitors; for EC50: read-out: SDR Ave SDR50
T1 sequence (P00519 233-500): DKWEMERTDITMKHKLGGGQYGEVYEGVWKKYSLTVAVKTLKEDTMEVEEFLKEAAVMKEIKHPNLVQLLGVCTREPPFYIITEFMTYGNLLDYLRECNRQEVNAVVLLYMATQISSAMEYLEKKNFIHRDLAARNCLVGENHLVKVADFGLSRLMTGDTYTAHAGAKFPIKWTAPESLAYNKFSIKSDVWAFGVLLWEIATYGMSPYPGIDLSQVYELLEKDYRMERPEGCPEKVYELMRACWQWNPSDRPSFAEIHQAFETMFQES

PKA = conditions: annotation yes/no for kinase library compound; source not given; cited from earlier work
PKA-N-HiBiT = PKA-N-HiBiT (Homo sapiens, UniProt P17612); experiment: SDR assay, PKA-N-HiBiT
[2] = ABL1-N-HiBiT qHTS, average maximal SDR response
[3] = PKA-N-HiBiT qHTS, SDR assay, average maximal response
[4] = ABL1-N-HiBiT qHTS, SDR assay, average maximal response
[5] = ABL1-N-HiBiT qHTS, SDR assay, average
[6] = ABL1-N-HiBiT qHTS, average, unit inferred

Compound | SDR Ave Max Response [1, 2] | Annotated PKA activity (PKA) | SDR Ave Max Response (PKA-N-HiBiT; [3]) | further results
CN1CCN([C@H]2CC[C@H](n3cc(-c4ccc(Oc5ccccc5)cc4)c4c(N)ncnc43)CC2)CC1 [A-419259] | 100.16 | no | -12.03 | –
COc1ccc2c(Oc3ccc(NC(=O)c4c(C)n(CC(C)(C)O)n(-c5ccccc5)c4=O)nc3)ccnc2c1 [AMG-458] | 38.29 | yes | – | EC50 (PKA-N-HiBiT): 10.7 µM; SDR Ave Max Response (PKA-N-HiBiT): -17.61; EC50 (PKA-N-HiBiT; read-out: PKA SDR Ave SDR50): 10.7 µM
COc1ccc(CNC(=O)Nc2ncc([N+](=O)[O-])s2)cc1 [AR-A014418] | -7.75 | no | -0.25 | –
Cc1sc2c(c1C)C(c1ccc(Cl)cc1)=N[C@@H](CC(=O)Nc1ccc(OCCOCCOCCOCCNc3cccc4c3C(=O)N(C3CCC(=O)NC3=O)C4=O)cc1)c1nnc(C)n1-2 (stereo partly drawn) [ARV-825] | – | no | 3.65 | SDR Ave Max Response [1, 4]: 5.73
O=C(NC1CCNCC1)c1n[nH]cc1NC(=O)c1c(Cl)cccc1Cl [AT-7519] | 9.60 | no | -18.47 | –
NC1(C(=O)N[C@@H](CCO)c2ccc(Cl)cc2)CCN(c2nc[nH]c3nccc2-3)CC1 [AZD-5363] | -4.45 | yes | 63.28 | –
CCn1nc(C2CCN(C(=O)CCO)CC2)nc1-c1cnc(N)c(-c2nnc(C(C)(C)C)o2)n1 [AZD-8835] | – | no | 6.01 | ABL1 SDR pSDR50 [1]: 4.80; SDR Ave Max Response [1, 4]: 63.43; EC50 [1, 5]: 17.6 µM
S=C(NCc1ccc2c(c1)OCO2)N1CCN(c2ncnc3c2oc2ccccc23)CC1 [Amuvatinib] | 8.96 | no | -0.36 | –
Cc1cccc(/C=N/Nc2cc(N3CCOCC3)nc(OCCc3ccccn3)n2)c1 [Apilimod] | 7.50 | no | -3.80 | –
CC(C)CCN1c2nc(Nc3cc(F)c(O)c(F)c3)ncc2N(C)C(=O)C1C (stereo not drawn) [BI-D1870] | – | no | -9.75 | ABL1 SDR pSDR50 [1]: 5.36; SDR Ave Max Response [1, 4]: -47.47; EC50 [1, 5]: 4.72 µM
C[C@@H]1CCNC(=O)c2cc3ccc(C(=O)Nc4nc5ccccc5n4CCCN(C)C)cc3n21 [BIX-02565] | 21.22 | no | 10.58 | –
Cc1ccccc1-n1c([C@H](C)Nc2nc(N)nc3[nH]cnc23)nc2cccc(C)c2c1=O [CAL-130 Hydrochloride] | -18.17 | no | 2.85 | SDR Ave pSDR50 ([1]; ABL1-N-HiBiT qHTS, average): 5.40; EC50 [1, 6]: 4.04 µM
CCN1C(=O)CNc2ncc(-c3ccc(-c4nc[nH]n4)nc3C)nc21 [CC-115] | – | no | -2.34 | SDR Ave Max Response [1, 4]: 31.14
Cc1nc2ccc(-n3ncc(C(=O)c4cc5ccccc5[nH]4)c3N)cc2[nH]1 [CH-5183284] | 37.79 | no | 4.01 | ABL1 SDR pSDR50 [1]: 5.61; EC50 [1, 6]: 2.51 µM
COc1cc2c(cc1OC)-c1[nH]nc(Nc3cccc(F)c3)c1C2 [PDGF RTK inhibitor IV] | – | no | 5.85 | –
CN1CCN(CCOc2cc(OC3CCOCC3)c3c(Nc4c(Cl)ccc5c4OCO5)ncnc3c2)CC1 [Saracatinib] | – | no | 3.81 | –
Cc1cc(-c2cc(O)ccc2Cl)cc2nnc(Nc3ccc(OCCN4CCCC4)cc3)nc12 [TG 100572 HCl] | – | no | -13.83 | –
TAE-684 | – | no | 28.42 | EC50 (PKA-N-HiBiT; read-out: PKA SDR Ave SDR50, PKA-N-HiBiT qHTS, SDR assay, average): 9.6 µM
Tozasertib | – | no | – | SDR Ave Max Response (PKA-N-HiBiT): -1.35
